The source of these data is patent publication US20250257051A1, “SUBSTITUTED PYRIMIDINE COMPOUNDS AS TYK2 INHIBITORS” (1910 Genetics Inc., priority 2022, published 2025).

Several values for one entry are separate records, joined by “and”; a condition that tells them apart may be missing. Equal entries are not always repeated. Structures can show the parent of a compound that is named as a salt.

Chain of human TYK2 (JH2domain-pseudokinase) (P29597 556-888): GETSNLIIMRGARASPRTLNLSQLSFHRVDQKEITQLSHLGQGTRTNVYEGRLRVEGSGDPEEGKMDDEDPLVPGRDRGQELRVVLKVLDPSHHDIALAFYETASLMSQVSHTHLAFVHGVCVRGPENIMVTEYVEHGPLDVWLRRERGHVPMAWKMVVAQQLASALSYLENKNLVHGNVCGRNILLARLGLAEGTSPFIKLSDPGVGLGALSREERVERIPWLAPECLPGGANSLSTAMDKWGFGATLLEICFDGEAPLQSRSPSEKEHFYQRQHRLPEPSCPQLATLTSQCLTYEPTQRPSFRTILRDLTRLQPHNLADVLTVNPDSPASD

The target in one assay is human TYK2 (JH2domain-pseudokinase) (Homo sapiens (Human), UniProt P29597). Kind of assay: TYK2 JH2 Domain Binding Assay (KINOMEscan competition binding). The note with it: KINOMEscan; 11-point 3-fold dilution, top concentration 30,000 nM; Kd measurements in duplicate; read-out: TYK JH2 (Kd). How it is done:
Binding constants for compounds disclosed herein may be determined by the KINOMEscan® assay developed by DiscoveRx. KINOMEscan® is based on a competition binding assay that quantitatively measures the ability of a compound to compete with an immobilized, active-site directed ligand. The assay is performed by combining three components: DNA-tagged kinase; immobilized ligand; and a test compound. The ability of the test compound to compete with the immobilized ligand is measure via quantitative PCR of the DNA tag.
Binding constants for compounds disclosed herein against the JH2 domain are determined by the following protocol for a KINOMEscan® assay (DiscoveRx). A fusion protein of a partial length construct of human TYK2 (JH2domain-pseudokinase) (amino acids G556 to D888 based on reference sequence NP 003322.3) and the DNA binding domain of NFkB is expressed in transiently transfected HEK293 cells. From these HEK 293 cells, extracts are prepared in M-PER extraction buffer (Pierce) in the presence of Protease Inhibitor Cocktail Complete (Roche) and Phosphatase Inhibitor Cocktail Set II (Merck) per manufacturers' instructions. The TYK2 (JH2domain-pseudokinase) fusion protein is labeled with a chimeric double-stranded DNA tag containing the NFkB binding site (5′-GGGAATTCCC-3′) fused to an amplicon for qPCR readout, which is added directly to the expression extract (the final concentration of DNA-tag in the binding reaction is 0.1 nM).
Streptavidin-coated magnetic beads (Dynal M280) are treated with a biotinylated small molecule ligand for 30 minutes at room temperature to generate affinity resins for the binding assays. The liganded beads are blocked with excess biotin and washed with blocking buffer (SeaBlock (Pierce), 1% BSA, 0.05% Tween 20, 1 mM DTT) to remove unbound ligand and to reduce nonspecific binding.
Extracts are used directly in binding assays without any enzyme purification steps at a >10,000-fold overall stock dilution (final DNA tagged enzyme concentration<0.1 nM). Extracts are loaded with DNA-tag and diluted into the binding reaction in a two-step process. First extracts are diluted 1:100 in 1× binding buffer (PBS/0.05% Tween 20/10 mM DTT/0.1% BSA/[…] sonicated salmon sperm DNA) containing 10 nM DNA-tag. This dilution is allowed to equilibrate at room temperature for 15 minutes and then subsequently diluted 1:100 in 1× binding buffer. Test compounds are prepared as 111× stocks in 100% DMSO. Kds are determined using an 11-point 3-fold compound dilution series with three DMSO control points. All compounds for Kd measurements are distributed by acoustic transfer (non-contact dispensing) in 100% DMSO. The compounds are then diluted directly into the assays such that the final concentration of DMSO is 0.9%. All reactions performed in polypropylene 384-well plates. Each is a final volume of 0.02 mL. Assays are incubated with shaking for 1 hour at room temperature. Then the beads are pelleted and washed with wash buffer (lx PBS, 0.05% Tween 20) to remove displaced kinase and test compound. The washed beads are re-suspended in elution buffer (lx PBS, 0.05% Tween 20, 0.5 μM non-biotinylated affinity ligand) and incubated at room temperature with shaking for 30 minutes. The kinase concentration in the eluates is measured by qPCR. qPCR reactions are assembled by adding 2.5 μL of kinase eluate to 7.5 μL of qPCR master mix containing 0.15 μM amplicon primers and 0.15 μM amplicon probe. The qPCR protocol consists of a 10-minute hot start at 95° C., followed by 35 cycles of 95° C. for 15 seconds, 60° C. for 1 minute.
Test compounds are prepared as 111× stocks in 100% DMSO. Kds are determined using an 11-point 3-fold compound dilution series with three DMSO control points. All compounds for Kd measurements are distributed by acoustic transfer (non-contact dispensing) in 100% DMSO. The compounds are then diluted directly into the assays such that the final concentration of DMSO is 0.9%. […]
As usually defined, the Kd is the equilibrium constant for the complex coming apart. Take `COc1c(Nc2nc(N3CCNCC3C)ncc2C(N)=O)cccc1-c1ncc(F)cn1` (centres unmarked) [Compound 57, 4-((3-(5-fluoropyrimidin-2-yl)-2-methoxyphenyl)amino)-2-(2-methylpiperazin-1-yl)pyrimidine-5-carboxamide]: the dissociation constant Kd was 49 nM.

Regarding `CNC(=O)c1cnc(N2CCCNCC2)nc1Nc1ccccc1OC` [Compound 29, 2-(1,4-diazepan-1-yl)-4-((2-methoxyphenyl)amino)-N-methylpyrimidine-5-carboxamide], the Kd is 4600 nM. The same measure, in the same setting: the result for `COc1c(Nc2nc(N3CCN(C(C)=O)CC3C)ncc2C(N)=O)cccc1-c1ncc(F)cn1` (centres unmarked) [Compound 60, 2-(4-acetyl-2-methylpiperazin-1-yl)-4-((3-(5-fluoropyrimidin-2-yl)-2-methoxyphenyl)amino)pyrimidine-5-carboxamide] reads 2 nM; that for `CNC(=O)c1cnc(N2CCN(C(C)=O)CC2C)nc1Nc1ccc(C2CC2)nc1` (centres unmarked) [Compound 70, 2-(4-acetyl-2-methylpiperazin-1-yl)-4-((6-cyclopropylpyridin-3-yl)amino)-N-methylpyrimidine-5-carboxamide], 4000 nM; that for `CCOC(=O)C1CCN(c2ncc(C(=O)NC)c(Nc3ccccc3S(C)(=O)=O)n2)CC1` [Compound 17, Ethyl 1-(5-(methylcarbamoyl)-4-((2-(methylsulfonyl)phenyl)amino)pyrimidin-2-yl)piperidine-4-carboxylate], 21 nM. For `CC(=O)N1CCN(c2ncc(C(N)=O)c(Nc3ccc(C4CC4)nc3)n2)C(C)C1` (centres unmarked) [Compound 11, 2-(4-acetyl-2-methylpiperazin-1-yl)-4-((6-cyclopropylpyridin-3-yl)amino)pyrimidine-5-carboxamide], the Kd is 180 nM. Turning to `CCOC(=O)C1CCN(c2ncc(C(N)=O)c(Nc3cccc(-c4ncc(F)cn4)c3OC)n2)CC1` [Compound 39, Ethyl 1-(5-carbamoyl-4-((3-(5-fluoropyrimidin-2-yl)-2-methoxyphenyl)amino)pyrimidin-2-yl)piperidine-4-carboxylate], the Kd turned out to be 0.82 nM. Still for that read-out and setting: the result for `NC(=O)c1cnc(N2CCCNCC2)nc1Nc1ccc(C2CC2)nc1` [Compound 46, 4-((6-cyclopropylpyridin-3-yl)amino)-2-(1,4-diazepan-1-yl)pyrimidine-5-carboxamide Hydrochloride] reads 6600 nM. With `CNC(=O)c1cnc(N2CCN(C(=O)OC(C)(C)C)CC2C)nc1Nc1ccc(C2CC2)nc1` (centres unmarked) [Compound 15, Tert-Butyl 4-(4-((6-cyclopropylpyridin-3-yl)amino)-5-(methylcarbamoyl)pyrimidin-2-yl)-3-methylpiperazine-1-carboxylate], the equilibrium dissociation constant (Kd) was determined as 42000 nM. Regarding `CNC(=O)c1cnc(N2CC[C@@H](C(=O)NC)C2)nc1Nc1ccc(C2CC2)nc1` [Compound 9, (R)-4-((6-cyclopropylpyridin-3-yl)amino)-N-methyl-2-(3-(methylcarbamoyl)pyrrolidin-1-yl)pyrimidine-5-carboxamide], the Kd was 240 nM. Take `CC1CN(C(=O)OC(C)(C)C)CCN1c1ncc(C(N)=O)c(Nc2ccc(C3CC3)nc2)n1` (centres unmarked) [Compound 13, Tert-Butyl 4-(S-carbamoyl-4-((6-cyclopropylpyridin-3-yl)amino)pyrimidin-2-yl)-3-methylpiperazine-1-carboxylate]: the dissociation constant (Kd) turned out to be 1000 nM. As for `NC(=O)c1cnc(N2CCCC2)nc1Nc1ccc(C2CC2)nc1` [Compound 2, 4-((6-cyclopropylpyridin-3-yl)amino)-2-(pyrrolidin-1-yl)pyrimidine-5-carboxamide], the Kd came to 12 nM. For `CNC(=O)c1cnc(N2CCN(C(C)=O)CC2C)nc1Nc1ccccc1OC` (centres unmarked) [Compound 23, 2-(4-acetyl-2-methylpiperazin-1-yl)-4-((2-methoxyphenyl)amino)-N-methylpyrimidine-5-carboxamide], the dissociation constant (Kd) stood at 1600 nM. As for `CNC(=O)c1cnc(N2CCCC2)nc1Nc1ccc(C(=O)N2CCOCC2)cc1` [Compound 8, N-methyl-4-((4-(morpholine-4-carbonyl)phenyl)amino)-2-(pyrrolidin-1-yl)pyrimidine-5-carboxamide], the Kd was determined as 360 nM. As for `CNC(=O)c1cnc(N2CC[C@@H](C(=O)NC)C2)nc1Nc1cccc(-c2ncc(F)cn2)c1OC` [Compound 5, (R)-4-((3-(5-fluoropyrimidin-2-yl)-2-methoxyphenyl)amino)-N-methyl-2-(3-(methylcarbamoyl)pyrrolidin-1-yl)pyrimidine-5-carboxamide], the dissociation constant Kd is 0.69 nM. As to `CC1CNCCN1c1ncc(C(N)=O)c(Nc2ccc(C3CC3)nc2)n1` (centres unmarked) [Compound 12, 4-((6-cyclopropylpyridin-3-yl)amino)-2-(2-methylpiperazin-1-yl)pyrimidine-5-carboxamide], the Kd was 800 nM. Still for that read-out and setting: under `CNC(=O)c1cnc(N2CCC(C(=O)O)CC2)nc1Nc1cccc(-c2ncc(F)cn2)c1OC` [Compound 27, 1-(4-((3-(5-fluoropyrimidin-2-yl)-2-methoxyphenyl)amino)-5-(methylcarbamoyl)pyrimidin-2-yl)piperidine-4-carboxylic acid] stands 36 nM; under `COc1ccccc1Nc1nc(N2CCN(C(C)=O)CC2C)ncc1C(N)=O` (centres unmarked) [Compound 59, 2-(4-acetyl-2-methylpiperazin-1-yl)-4-((2-methoxyphenyl)amino)pyrimidine-5-carboxamide], 270 nM. `COc1c(Nc2nc(N3CCN(C(=O)OC(C)(C)C)CC3C)ncc2C(N)=O)cccc1-c1ncc(F)cn1` (centres unmarked) [Compound 37, Tert-Butyl 4-(5-carbamoyl-4-((3-(5-fluoropyrimidin-2-yl)-2-methoxyphenyl)amino)pyrimidin-2-yl)-3-methylpiperazine-1-carboxylate]: the dissociation constant (Kd) was determined as 34 nM. Take `COc1ccccc1Nc1nc(N2CCN(C(=O)OC(C)(C)C)CC2C)ncc1C(N)=O` (centres unmarked) [Compound 43, Tert-Butyl 4-(5-carbamoyl-4-((2-methoxyphenyl)amino)pyrimidin-2-yl)-3-methylpiperazine-1-carboxylate]: the Kd worked out at 7500 nM.

Regarding `CNC(=O)c1cnc(N2CCNCC2C)nc1Nc1cccc(-c2ncc(F)cn2)c1OC` (centres unmarked) [Compound 25, 4-((3-(5-fluoropyrimidin-2-yl)-2-methoxyphenyl)amino)-N-methyl-2-(2-methylpiperazin-1-yl)pyrimidine-5-carboxamide Hydrochloride], the Kd was 180 nM. Still for that read-out and setting: under `CNC(=O)[C@H]1CCN(c2ncc(C(N)=O)c(Nc3cccc(-c4ncc(F)cn4)c3OC)n2)C1` [Compound 52, (S)-4-((3-(5-fluoropyrimidin-2-yl)-2-methoxyphenyl)amino)-2-(3-(methylcarbamoyl)pyrrolidin-1-yl)pyrimidine-5-carboxamide] stands 1.6 nM; under `CNC(=O)C1CN(c2ncc(C(N)=O)c(Nc3ccc(C4CC4)nc3)n2)C1` [Compound 50, 4-((6-cyclopropylpyridin-3-yl)amino)-2-(3-(methylcarbamoyl)azetidin-1-yl)pyrimidine-5-carboxamide], 110 nM; under `CCOC(=O)C1CCN(c2ncc(C(=O)NC)c(Nc3ccccc3OC)n2)CC1` [Compound 34, Ethyl 1-(4-((2-methoxyphenyl)amino)-5-(methylcarbamoyl)pyrimidin-2-yl)piperidine-4-carboxylate], 760 nM.

In the case of `CC(=O)N1CCCN(c2ncc(C(N)=O)c(Nc3ccccc3S(C)(=O)=O)n2)CC1` [Compound 80, 2-(4-acetyl-1,4-diazepan-1-yl)-4-((2-(methylsulfonyl)phenyl)amino)pyrimidine-5-carboxamide], the Kd came to 950 nM.

The same assay, now with this note: footnote a: the two measurements averaged for Cmpd. No. 5; read-out: TYK JH2 (Kd, nM), individual measurements.
On to `CNC(=O)c1cnc(N2CC[C@@H](C(=O)NC)C2)nc1Nc1cccc(-c2ncc(F)cn2)c1OC` [Compound 5, (R)-4-((3-(5-fluoropyrimidin-2-yl)-2-methoxyphenyl)amino)-N-methyl-2-(3-(methylcarbamoyl)pyrrolidin-1-yl)pyrimidine-5-carboxamide], for which the Kd is 0.45 nM and 0.93 nM.
